The target of experiment [1] is T1, human α1G T-type channels (Homo sapiens, UniProt O43497).
T1 construct: expressed in transfected cells; host or cells: HEK 293
As to the kind of experiment: T-type calcium channel block, whole cell patch clamp (α1G). The experiment is classed as cell-based. The note with it: HEK cells stably expressing human α1G; mainly non-inactivated protocol; values above 10 μM represented as 10 μM, values below 0.30 μM represented as 0.30 μM. Put shortly:
(§1)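 Resting block was measured mainly with the non-inactivated protocol: holding potential −110 mV, 1 s step to −100 mV, then a 50 ms test pulse at −40 mV. Recordings used stably transfected human α1G or α1H HEK293 lines, with compounds perfused in external solution containing 0.1-0.01% DMSO. IC50 values (μM) above 10 μM are reported as 10 μM.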
Background: Patch clamp records ionic current or voltage across a cell membrane.

Experiment [2] deals with T2, human α1H T-type channels (Homo sapiens, UniProt O95180).
T2 construct: expressed in transfected cells; host or cells: HEK 293
As to the kind of experiment: T-type calcium channel block, whole cell patch clamp (α1H). In kind it is cell-based. The note with it: HEK cells stably expressing human α1H; mainly non-inactivated protocol; values above 10 μM represented as 10 μM. In a few lines: as §1

Molecules are shown by their SMILES.

T2 sequence (O95180 whole entry): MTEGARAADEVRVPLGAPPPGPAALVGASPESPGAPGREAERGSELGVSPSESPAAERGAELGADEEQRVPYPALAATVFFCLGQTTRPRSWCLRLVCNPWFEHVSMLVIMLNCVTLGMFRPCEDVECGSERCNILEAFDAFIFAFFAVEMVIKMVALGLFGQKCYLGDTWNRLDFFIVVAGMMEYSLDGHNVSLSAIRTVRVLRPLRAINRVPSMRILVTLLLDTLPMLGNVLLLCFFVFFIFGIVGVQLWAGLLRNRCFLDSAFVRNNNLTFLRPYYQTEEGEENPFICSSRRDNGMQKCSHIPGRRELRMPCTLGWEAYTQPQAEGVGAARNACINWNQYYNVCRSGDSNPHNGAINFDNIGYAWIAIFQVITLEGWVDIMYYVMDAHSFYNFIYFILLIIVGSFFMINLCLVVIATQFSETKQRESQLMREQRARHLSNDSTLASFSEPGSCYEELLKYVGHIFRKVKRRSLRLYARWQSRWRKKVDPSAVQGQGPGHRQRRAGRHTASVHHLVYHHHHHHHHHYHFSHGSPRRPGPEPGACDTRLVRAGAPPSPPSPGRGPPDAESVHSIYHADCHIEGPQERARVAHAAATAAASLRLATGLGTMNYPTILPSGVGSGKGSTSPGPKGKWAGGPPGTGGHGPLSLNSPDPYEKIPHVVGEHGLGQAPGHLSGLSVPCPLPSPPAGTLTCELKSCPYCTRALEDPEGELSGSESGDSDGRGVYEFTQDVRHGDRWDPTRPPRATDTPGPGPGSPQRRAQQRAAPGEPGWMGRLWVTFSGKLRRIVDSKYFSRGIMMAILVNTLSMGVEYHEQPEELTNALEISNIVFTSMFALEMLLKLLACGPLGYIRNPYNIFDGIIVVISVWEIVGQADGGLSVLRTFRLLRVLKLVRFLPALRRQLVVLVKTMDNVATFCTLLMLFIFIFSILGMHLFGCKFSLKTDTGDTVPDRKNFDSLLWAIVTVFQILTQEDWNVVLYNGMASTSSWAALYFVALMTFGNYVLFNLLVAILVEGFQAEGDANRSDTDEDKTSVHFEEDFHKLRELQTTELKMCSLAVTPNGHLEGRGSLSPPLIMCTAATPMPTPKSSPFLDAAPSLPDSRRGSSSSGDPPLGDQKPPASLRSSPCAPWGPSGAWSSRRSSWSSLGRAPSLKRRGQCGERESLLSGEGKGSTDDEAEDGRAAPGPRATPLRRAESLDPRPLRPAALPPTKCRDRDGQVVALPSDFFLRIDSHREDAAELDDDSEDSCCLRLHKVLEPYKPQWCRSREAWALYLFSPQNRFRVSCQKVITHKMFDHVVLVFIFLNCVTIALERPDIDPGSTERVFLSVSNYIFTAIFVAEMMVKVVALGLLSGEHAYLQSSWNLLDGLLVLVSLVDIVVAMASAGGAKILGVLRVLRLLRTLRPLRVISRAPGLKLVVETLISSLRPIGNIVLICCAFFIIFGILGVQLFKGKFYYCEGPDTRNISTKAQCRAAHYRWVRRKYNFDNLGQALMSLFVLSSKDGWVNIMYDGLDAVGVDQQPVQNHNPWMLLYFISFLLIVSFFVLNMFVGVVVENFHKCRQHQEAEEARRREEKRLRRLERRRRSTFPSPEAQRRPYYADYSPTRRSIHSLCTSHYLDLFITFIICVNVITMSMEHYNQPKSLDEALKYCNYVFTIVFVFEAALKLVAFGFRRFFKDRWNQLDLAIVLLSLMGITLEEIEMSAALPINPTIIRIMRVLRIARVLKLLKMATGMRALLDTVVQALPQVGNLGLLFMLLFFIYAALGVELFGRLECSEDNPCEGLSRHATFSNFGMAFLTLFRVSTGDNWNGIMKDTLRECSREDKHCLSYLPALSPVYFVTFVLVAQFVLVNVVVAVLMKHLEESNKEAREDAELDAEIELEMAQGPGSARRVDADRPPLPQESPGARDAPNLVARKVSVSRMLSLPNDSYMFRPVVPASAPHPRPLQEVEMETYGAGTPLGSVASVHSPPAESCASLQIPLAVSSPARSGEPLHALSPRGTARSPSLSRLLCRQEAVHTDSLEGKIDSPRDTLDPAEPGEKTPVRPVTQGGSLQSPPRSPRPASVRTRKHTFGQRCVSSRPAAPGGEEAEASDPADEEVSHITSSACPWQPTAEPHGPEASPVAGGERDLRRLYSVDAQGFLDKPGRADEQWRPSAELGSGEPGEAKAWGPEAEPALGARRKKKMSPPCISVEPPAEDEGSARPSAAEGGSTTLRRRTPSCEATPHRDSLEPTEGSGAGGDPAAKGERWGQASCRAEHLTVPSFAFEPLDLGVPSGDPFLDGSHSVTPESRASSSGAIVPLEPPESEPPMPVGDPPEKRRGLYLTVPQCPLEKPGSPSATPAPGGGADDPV
T1 sequence (O43497 whole entry): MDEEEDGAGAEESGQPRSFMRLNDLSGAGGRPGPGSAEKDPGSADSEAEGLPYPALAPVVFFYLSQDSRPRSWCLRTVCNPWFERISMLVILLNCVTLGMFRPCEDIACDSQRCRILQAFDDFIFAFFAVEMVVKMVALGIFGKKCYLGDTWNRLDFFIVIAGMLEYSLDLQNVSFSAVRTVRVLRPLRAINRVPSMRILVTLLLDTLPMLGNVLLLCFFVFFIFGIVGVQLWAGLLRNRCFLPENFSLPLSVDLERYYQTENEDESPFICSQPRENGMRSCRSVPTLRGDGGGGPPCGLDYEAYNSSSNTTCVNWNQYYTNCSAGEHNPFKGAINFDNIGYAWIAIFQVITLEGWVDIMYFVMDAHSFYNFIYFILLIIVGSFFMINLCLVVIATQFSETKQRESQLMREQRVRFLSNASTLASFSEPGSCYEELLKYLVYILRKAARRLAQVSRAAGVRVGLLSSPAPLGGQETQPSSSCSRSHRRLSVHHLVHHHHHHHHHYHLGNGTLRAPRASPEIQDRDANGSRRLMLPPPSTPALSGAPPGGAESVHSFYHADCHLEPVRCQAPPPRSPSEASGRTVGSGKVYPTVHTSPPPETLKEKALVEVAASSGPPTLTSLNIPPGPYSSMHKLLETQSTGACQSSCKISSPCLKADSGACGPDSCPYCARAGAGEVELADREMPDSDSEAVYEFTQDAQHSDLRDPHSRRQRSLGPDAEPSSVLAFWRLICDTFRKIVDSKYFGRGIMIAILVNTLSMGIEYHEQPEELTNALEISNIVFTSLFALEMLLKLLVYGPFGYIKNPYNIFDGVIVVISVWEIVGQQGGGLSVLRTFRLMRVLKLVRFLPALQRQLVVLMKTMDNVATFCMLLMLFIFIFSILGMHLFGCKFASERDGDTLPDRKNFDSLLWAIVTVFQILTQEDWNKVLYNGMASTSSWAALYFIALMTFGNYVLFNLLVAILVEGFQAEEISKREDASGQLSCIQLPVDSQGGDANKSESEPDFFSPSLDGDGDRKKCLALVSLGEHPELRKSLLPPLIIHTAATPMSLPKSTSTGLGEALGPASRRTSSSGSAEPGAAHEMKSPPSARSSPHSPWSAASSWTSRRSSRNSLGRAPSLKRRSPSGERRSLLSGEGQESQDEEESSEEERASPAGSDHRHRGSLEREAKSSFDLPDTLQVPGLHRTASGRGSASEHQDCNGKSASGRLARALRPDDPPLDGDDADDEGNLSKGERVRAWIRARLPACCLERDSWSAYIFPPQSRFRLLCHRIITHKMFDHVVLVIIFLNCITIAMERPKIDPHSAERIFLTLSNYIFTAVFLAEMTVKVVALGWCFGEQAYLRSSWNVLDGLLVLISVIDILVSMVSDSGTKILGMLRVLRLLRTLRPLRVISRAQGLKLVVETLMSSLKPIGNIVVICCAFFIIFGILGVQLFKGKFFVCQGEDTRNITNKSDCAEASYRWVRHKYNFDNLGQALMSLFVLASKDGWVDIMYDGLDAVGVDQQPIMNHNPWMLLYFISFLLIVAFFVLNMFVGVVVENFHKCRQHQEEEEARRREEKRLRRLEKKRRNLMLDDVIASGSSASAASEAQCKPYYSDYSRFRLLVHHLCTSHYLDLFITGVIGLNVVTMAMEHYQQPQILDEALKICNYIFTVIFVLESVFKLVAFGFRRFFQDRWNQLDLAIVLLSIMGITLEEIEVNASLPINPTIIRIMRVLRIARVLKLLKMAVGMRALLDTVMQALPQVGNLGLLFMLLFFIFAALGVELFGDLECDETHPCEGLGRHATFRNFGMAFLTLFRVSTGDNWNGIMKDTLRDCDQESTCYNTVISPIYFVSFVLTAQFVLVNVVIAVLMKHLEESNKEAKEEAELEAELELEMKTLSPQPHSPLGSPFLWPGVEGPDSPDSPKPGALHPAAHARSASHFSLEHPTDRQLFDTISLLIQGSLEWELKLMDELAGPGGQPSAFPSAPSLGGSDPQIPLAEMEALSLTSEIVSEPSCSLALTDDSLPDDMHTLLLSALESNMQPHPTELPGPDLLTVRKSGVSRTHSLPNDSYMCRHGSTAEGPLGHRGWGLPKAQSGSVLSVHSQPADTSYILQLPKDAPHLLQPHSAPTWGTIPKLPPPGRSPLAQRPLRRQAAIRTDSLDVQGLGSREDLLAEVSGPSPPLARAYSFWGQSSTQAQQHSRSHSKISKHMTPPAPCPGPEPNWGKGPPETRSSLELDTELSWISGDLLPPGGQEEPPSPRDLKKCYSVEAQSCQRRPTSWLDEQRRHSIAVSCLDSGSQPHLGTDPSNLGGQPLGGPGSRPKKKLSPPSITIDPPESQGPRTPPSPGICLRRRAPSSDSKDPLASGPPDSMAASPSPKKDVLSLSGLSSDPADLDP

`Cc1ccc(-c2csc(NC(=O)C[C@H]3CC[C@H](NCC(O)(C(F)(F)F)C(F)(F)F)CC3)n2)cc1` [Compound 151, N-(4-p-tolylthiazol-2-yl)-2-(trans-4-(3,3,3-trifluoro-2-hydroxy-2-(trifluoromethyl)propylamino)cyclohexyl)acetamide]: the IC50 (usually the concentration at which inhibition is half-maximal) was 0.48 µM in experiment [1] and no less than 10 µM in experiment [2].
Regarding `Cc1ccc(-c2csc(NC(=O)C[C@H]3CC[C@@H](NCC(O)(C(F)(F)F)C(F)(F)F)CC3)n2)cc1` [Compound 152, N-(4-p-tolylthiazol-2-yl)-2-(cis-4-(3,3,3-trifluoro-2-hydroxy-2-(trifluoromethyl)propylamino)cyclohexyl)acetamide], the IC50 was no more than 0.3 µM in experiment [1] and no less than 10 µM in experiment [2].
In the case of `CC(C)(C)C1CN([C@H]2CC[C@H](CNC(=O)c3cc(C(F)(F)F)cc(C(F)(F)F)c3)CC2)C(=O)O1` (stereo partly drawn) [Compound 153, N-((trans-4-(5-tert-butyl-2-oxooxazolidin-3-yl)cyclohexyl)methyl)-3,5-bis(trifluoromethyl)benzamide], the figures for the IC50 in experiment [1] and in experiment [2] were 1.18 µM and 4.01 µM, respectively.
In the same order, the values of `CC(C)(C)NC(=O)CN[C@H]1CC[C@@H](CNC(=O)c2cccc(Cl)c2)CC1` [Compound 179, N-(((1s,4s)-4-(2-(tert-butylamino)-2-oxoethylamino)cyclohexyl)methyl)-3-chlorobenzamide] are 2.92 µM and 1.32 µM.
Take `COc1cc(OC)cc(C(=O)NC[C@H]2CC[C@@H](NCC(=O)NC(C)(C)C)CC2)c1` [Compound 181, N-(((1s,4s)-4-(2-(tert-butylamino)-2-oxoethylamino)cyclohexyl)methyl)-3,5-dimethoxybenzamide]: the figures for the IC50 in experiment [1] and in experiment [2] were 3.65 µM and 0.33 µM, respectively.
With `CC(C)(C)NC(=O)CN[C@H]1CC[C@@H](CNC(=O)c2cccc(C(F)(F)F)c2)CC1` [Compound 182, N-(((1s,4s)-4-(2-(tert-butylamino)-2-oxoethylamino)cyclohexyl)methyl)-3-(trifluoromethyl)benzamide], the IC50 in experiment [1] came out at 2.37 µM; in experiment [2], 3.42 µM.
On to `CC(C)(C)NC(=O)CN[C@H]1CC[C@@H](CNC(=O)c2cccc(Br)c2)CC1` [Compound 183, 3-bromo-N-(((1s,4s)-4-(2-(tert-butylamino)-2-oxoethylamino)cyclohexyl)methyl)benzamide], for which the values for the IC50 in experiment [1] and in experiment [2] were 2.24 µM and 0.82 µM, respectively.
The like results for `CC(C)(C)NC(=O)CN[C@H]1CC[C@@H](CNC(=O)c2cccc(OC(F)(F)F)c2)CC1` [Compound 185, N-(((1s,4s)-4-(2-(tert-butylamino)-2-oxoethylamino)cyclohexyl)methyl)-3-(trifluoromethoxy)benzamide] were, in that order, 0.79 µM and 0.33 µM.
The like results for `CC(C)(C)NC(=O)CN[C@H]1CC[C@@H](CNC(=O)c2cc(F)cc(Cl)c2)CC1` [Compound 186, N-(((1s,4s)-4-(2-(tert-butylamino)-2-oxoethylamino)cyclohexyl)methyl)-3-chloro-5-fluorobenzamide] were, in that order, 1.18 µM and 0.26 µM.
With `CC(C)(C)NC(=O)CN[C@H]1CC[C@@H](CNC(=O)c2cc(Cl)cc(Cl)c2)CC1` [Compound 187, N-(((1s,4s)-4-(2-(tert-butylamino)-2-oxoethylamino)cyclohexyl)methyl)-3,5-dichlorobenzamide], the IC50 was no more than 0.3 µM in experiment [1] and 0.06 µM in experiment [2].
For the compound `Cc1cc(F)cc(C(=O)NC[C@H]2CC[C@@H](NCC(=O)NC(C)(C)C)CC2)c1` [Compound 188, N-(((1s,4s)-4-(2-(tert-butylamino)-2-oxoethylamino)cyclohexyl)methyl)-3-fluoro-5-methylbenzamide], the IC50 in experiment [1] turned out to be 4.28 µM; in experiment [2], 1.23 µM.
The like results for `CC(C)(C)NC(=O)CN[C@H]1CC[C@H](CNC(=O)c2cccc(OC(F)(F)F)c2)CC1` [Compound 189, N-(((1r,4r)-4-(2-(tert-butylamino)-2-oxoethylamino)cyclohexyl)methyl)-3-(trifluoromethoxy)benzamide] were, in that order, 3.66 µM and 1.66 µM.
Take `CC1(NC(=O)CN[C@H]2CC[C@H](CNC(=O)c3cccc(OC(F)(F)F)c3)CC2)CCC1` [Compound 190, N-(((1r,4r)-4-(2-(1-methylcyclobutylamino)-2-oxoethylamino)cyclohexyl)methyl)-3-(trifluoromethoxy)benzamide]: the IC50 in experiment [1] is 1.63 µM; in experiment [2] it was 0.62 µM.
For the compound `CC(C)(C)NC(=O)CN[C@H]1CC[C@H](CNC(=O)c2cc(Cl)cc(Cl)c2)CC1` [Compound 191, N-(((1r,4r)-4-(2-(tert-butylamino)-2-oxoethylamino)cyclohexyl)methyl)-3,5-dichlorobenzamide], the 50% inhibitory concentration (IC50) was found to be 0.53 µM in experiment [1] and 0.18 µM in experiment [2].
The like results for `CC1(NC(=O)CN[C@H]2CC[C@H](CNC(=O)c3cc(Cl)cc(Cl)c3)CC2)CCC1` [Compound 192, 3,5-dichloro-N-(((1r,4r)-4-(2-(1-methylcyclobutylamino)-2-oxoethylamino)cyclohexyl)methyl)benzamide] were, in that order, 0.34 µM and 0.12 µM.
The like results for `CC1(NC(=O)CN[C@H]2CC[C@@H](CNC(=O)c3cc(F)cc(Cl)c3)CC2)CCC1` [Compound 193, 3-chloro-5-fluoro-N-(((1s,4s)-4-(2-(1-methylcyclobutylamino)-2-oxoethylamino)cyclohexyl)methyl)benzamide] were, in that order, 0.72 µM and 0.23 µM.
The like results for `CC1(C)COCCN1C(=O)CN[C@H]1CC[C@@H](CNC(=O)c2cc(F)cc(Cl)c2)CC1` [Compound 194, 3-chloro-N-(((1s,4s)-4-(2-(3,3-dimethylmorpholino)-2-oxoethylamino)cyclohexyl)methyl)-5-fluorobenzamide] were, in that order, 3.4 µM and 0.4 µM.
In the case of `CC1(C)CCCN1C(=O)CN[C@H]1CC[C@@H](CNC(=O)c2cc(F)cc(Cl)c2)CC1` [Compound 195, 3-chloro-N-(((1s,4s)-4-(2-(2,2-dimethylpyrrolidin-1-yl)-2-oxoethylamino)cyclohexyl)methyl)-5-fluorobenzamide], the IC50 in experiment [1] was 1.1 µM; in experiment [2], 0.17 µM.
`CN(C(=O)CN[C@H]1CC[C@@H](CNC(=O)c2cc(F)cc(Cl)c2)CC1)C(C)(C)C` [Compound 196, N-(((1s,4s)-4-(2-(tert-butyl(methyl)amino)-2-oxoethylamino)cyclohexyl)methyl)-3-chloro-5-fluorobenzamide]: the IC50 amounted to 1.62 µM in experiment [1] and 0.21 µM in experiment [2].
With `COc1cc(F)cc(C(=O)NC[C@H]2CC[C@@H](NCC(=O)NC3(C)CCC3)CC2)c1` [Compound 197, 3-fluoro-5-methoxy-N-(((1s,4s)-4-(2-(1-methylcyclobutylamino)-2-oxoethylamino)cyclohexyl)methyl)benzamide], the values for the IC50 in experiment [1] and in experiment [2] were 1.94 µM and 0.26 µM, respectively.
On to `COc1cc(F)cc(C(=O)NC[C@H]2CC[C@@H](NCC(=O)N3CCOCC3(C)C)CC2)c1` [Compound 198, N-(((1s,4s)-4-(2-(3,3-dimethylmorpholino)-2-oxoethylamino)cyclohexyl)methyl)-3-fluoro-5-methoxybenzamide], for which the IC50 turned out to be 9.92 µM in experiment [1] and 0.63 µM in experiment [2].
With `COc1cc(F)cc(C(=O)NC[C@H]2CC[C@@H](NCC(=O)N3CCCC3(C)C)CC2)c1` [Compound 199, N-(((1s,4s)-4-(2-(2,2-dimethylpyrrolidin-1-yl)-2-oxoethylamino)cyclohexyl)methyl)-3-fluoro-5-methoxybenzamide], the IC50 in experiment [1] came to 3.8 µM; in experiment [2] it was 0.35 µM.
The like results for `COc1cc(F)cc(C(=O)NC[C@H]2CC[C@@H](NCC(=O)N(C)C(C)(C)C)CC2)c1` [Compound 200, N-(((1s,4s)-4-(2-(tert-butyl(methyl)amino)-2-oxoethylamino)cyclohexyl)methyl)-3-fluoro-5-methoxybenzamide] were, in that order, 3.35 µM and 0.47 µM.
The like results for `CC(C)(C)NC(=O)CN[C@H]1CC[C@H](CNC(=O)c2cc(F)cc(Cl)c2)CC1` [Compound 201, N-(((1r,4r)-4-(2-(tert-butylamino)-2-oxoethylamino)cyclohexyl)methyl)-3-chloro-5-fluorobenzamide] were, in that order, 1.8 µM and 0.57 µM.
In the same order, the values of `CC1(NC(=O)CN[C@H]2CC[C@H](CNC(=O)c3cc(F)cc(Cl)c3)CC2)CCC1` [Compound 202, 3-chloro-5-fluoro-N-(((1r,4r)-4-(2-(1-methylcyclobutylamino)-2-oxoethylamino)cyclohexyl)methyl)benzamide] are 0.97 µM and 0.31 µM.
On to `CC1(C)COCCN1C(=O)CN[C@H]1CC[C@H](CNC(=O)c2cc(F)cc(Cl)c2)CC1` [Compound 203, 3-chloro-N-(((1r,4r)-4-(2-(3,3-dimethylmorpholino)-2-oxoethylamino)cyclohexyl)methyl)-5-fluorobenzamide], for which the IC50 in experiment [1] amounted to 6.13 µM; in experiment [2] it was 2.16 µM.
Take `CC1(C)CCCN1C(=O)CN[C@H]1CC[C@H](CNC(=O)c2cc(F)cc(Cl)c2)CC1` [Compound 204, 3-chloro-N-(((1r,4r)-4-(2-(2,2-dimethylpyrrolidin-1-yl)-2-oxoethylamino)cyclohexyl)methyl)-5-fluorobenzamide]: the IC50 in experiment [1] amounted to 1.58 µM; in experiment [2] it was 0.65 µM.
The like results for `CN(C(=O)CN[C@H]1CC[C@H](CNC(=O)c2cc(F)cc(Cl)c2)CC1)C(C)(C)C` [Compound 205, N-(((1r,4r)-4-(2-(tert-butyl(methyl)amino)-2-oxoethylamino)cyclohexyl)methyl)-3-chloro-5-fluorobenzamide] were, in that order, 2.02 µM and 1.1 µM.

Values taken from patent US20090298834A1, “4-(AMINOMETHYL)CYCLOHEXANAMINE DERIVATIVES AS CALCIUM CHANNEL BLOCKERS” (priority 2008, published 2009).
